SMILES strings stand for the structures.

This is an account of results in patent publication US8729273B2, “Compounds effective as xanthine oxidase inhibitors, method for preparing the same, and pharmaceutical composition containing the same” (LG Life Sciences Ltd., priority 2009, dated 2014).

The first experiment relates to plasma uric acid. Briefly: In vivo xanthine oxidase assay: plasma uric acid-lowering activity in oxonic acid-induced high-uric acid model. The arrangement: species or system rat. To be noted: male SD rats, potassium oxonate 300 mg/kg i.p., compound 10 mg/kg oral, plasma at 1 h after oral administration; normal group = 100% inhibition, control group = 0%. As to the method:
Uric Acid-Lowering Activity in Plasma and Liver (Oxonic Acid-Induced High-Uric Acid Model in Rat)
In order to estimate the plasma uric acid-lowering ability of the compounds according to the present invention, experiments were carried out using oxonic acid-induced high-uric acid model.
300 mg/kg of potassium oxonate suspended in 0.8% carboxymethylcellulose solution was intraperitoneally administered to male SD rats of body weight 200 g (control group, compound administration group). 1 h after the oxonic acid administration, 10 mg/kg of test compounds dissolved in polyethyleneglycol 400:ethanol (2:1) solution were orally administered (compound administration group), and after the time period of 1 h blood was sampled. Plasma was separated from thus-obtained blood, and the uric acid concentration in the plasma was quantified utilizing LC-MS/MS. FIGS. 1 and 2 represent the results of plasma uric acid concentration and inhibition rate of plasma uric acid, respectively.
Through the present experiment, excellent plasma uric acid-lowering activity of the compounds according to the present invention was verified.
`CC(C)n1cc(C#N)c2cc(-n3cc(C(=O)O)cn3)ccc21` [Example 1, 1-(3-cyano-1-isopropyl-indol-5-yl)pyrazole-4-carboxylic acid]: the “uric acid inhibition rate” value was determined as 60%.

The next experiment deals with Xanthine oxidase originated from bovine milk (Bos taurus (Bovine), UniProt P80457). The experiment in a line: Xanthine oxidase inhibition activity (initial velocity of uric acid formation). Type of experiment: biochemical. The conditions noted are these: 3 min incubation with test compound, substrate xanthine. As for the experimental part: Xanthine oxidase originated from bovine milk was incubated for 3 min with test compounds, and the initial velocity of uric acid formation was determined by adding the substrate xanthine. The initial velocity of test compound at each concentration was converted to % inhibition rate on the basis of the initial velocity under the absence of the inhibitor, thereby the inhibitor concentration needed for 50% inhibition was calculated as IC50 values. According to the present invention, compounds which show IC50 values against xanthine oxidase from bovine milk in the level of nM were developed.
Xanthine oxidase originated from bovine milk, sequence (P80457 whole entry): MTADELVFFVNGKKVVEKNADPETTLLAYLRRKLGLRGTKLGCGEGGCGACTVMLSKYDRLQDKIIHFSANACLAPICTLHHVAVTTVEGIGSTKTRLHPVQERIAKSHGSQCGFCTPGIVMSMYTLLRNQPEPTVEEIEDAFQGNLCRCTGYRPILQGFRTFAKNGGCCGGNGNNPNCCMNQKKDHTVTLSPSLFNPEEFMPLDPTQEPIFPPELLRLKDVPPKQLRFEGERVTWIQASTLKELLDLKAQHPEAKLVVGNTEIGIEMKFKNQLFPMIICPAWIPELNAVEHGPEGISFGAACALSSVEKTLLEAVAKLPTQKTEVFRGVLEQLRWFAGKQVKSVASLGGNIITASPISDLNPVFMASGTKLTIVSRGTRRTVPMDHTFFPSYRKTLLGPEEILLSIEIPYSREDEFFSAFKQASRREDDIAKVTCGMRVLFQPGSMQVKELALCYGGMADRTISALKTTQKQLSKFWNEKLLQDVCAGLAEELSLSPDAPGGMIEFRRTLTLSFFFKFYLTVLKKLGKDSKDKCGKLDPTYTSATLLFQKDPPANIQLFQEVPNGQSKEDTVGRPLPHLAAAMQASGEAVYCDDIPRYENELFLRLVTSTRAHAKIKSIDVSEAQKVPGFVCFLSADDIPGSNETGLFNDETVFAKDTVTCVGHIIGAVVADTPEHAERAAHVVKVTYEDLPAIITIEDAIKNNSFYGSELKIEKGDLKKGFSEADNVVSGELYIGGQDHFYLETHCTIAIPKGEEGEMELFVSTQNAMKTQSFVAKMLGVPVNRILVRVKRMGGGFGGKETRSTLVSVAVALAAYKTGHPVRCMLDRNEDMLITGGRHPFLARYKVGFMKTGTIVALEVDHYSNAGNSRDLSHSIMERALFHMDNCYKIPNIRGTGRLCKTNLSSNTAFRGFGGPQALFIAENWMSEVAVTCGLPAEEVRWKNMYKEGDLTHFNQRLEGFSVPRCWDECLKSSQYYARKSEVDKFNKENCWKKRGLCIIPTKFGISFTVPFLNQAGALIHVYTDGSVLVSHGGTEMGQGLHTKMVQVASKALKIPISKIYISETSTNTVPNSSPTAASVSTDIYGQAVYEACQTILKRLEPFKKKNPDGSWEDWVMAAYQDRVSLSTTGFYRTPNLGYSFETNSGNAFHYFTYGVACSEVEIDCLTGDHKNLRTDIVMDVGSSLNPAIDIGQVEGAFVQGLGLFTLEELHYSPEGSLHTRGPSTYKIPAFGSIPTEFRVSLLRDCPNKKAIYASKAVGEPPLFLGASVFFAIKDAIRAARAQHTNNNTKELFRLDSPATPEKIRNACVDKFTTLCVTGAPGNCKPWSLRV
As for `CC(C)n1cc(C#N)c2cc(-n3cc(C(=O)O)cn3)ccc21` [Example 1, 1-(3-cyano-1-isopropyl-indol-5-yl)pyrazole-4-carboxylic acid], inhibition was half-maximal at 3.4 nM (IC50).

In turn, `N#Cc1cn(CC2CC2)c2ccc(-n3cc(C(=O)O)cn3)cc12` [Example 2, 1-[3-cyano-1-(cyclopropylmethyl)indol-5-yl]pyrazole-4-carboxylic acid] registered an IC50 of 2.8 nM. `N#Cc1cn(C2CC2)c2ccc(-n3cc(C(=O)O)cn3)cc12` [Example 3, 1-[3-cyano-1-cyclopropyl-indol-5-yl]pyrazole-4-carboxylic acid] had an IC50 of 6 nM.

Turning to `CC(C)Cn1cc(C#N)c2cc(-n3cc(C(=O)O)cn3)ccc21` [Example 4, 1-(3-cyano-1-isobutyl-indol-5-yl)pyrazole-4-carboxylic acid], the midpoint of inhibition, the IC50, lay at 4.5 nM. Still for that read-out and setting: for `CC(C)(C)Cn1cc(C#N)c2cc(-n3cc(C(=O)O)cn3)ccc21` [Example 5, 1-[3-cyano-1-(2,2-dimethylpropyl)indol-5-yl]pyrazole-4-carboxylic acid] the value was 5 nM; for `COCCn1cc(C#N)c2cc(-n3cc(C(=O)O)cn3)ccc21` [Example 6, 1-[3-cyano-1-(2-methoxyethyl)indol-5-yl]pyrazole-4-carboxylic acid], 3.8 nM; for `CCC(C)n1cc(C#N)c2cc(-n3cc(C(=O)O)cn3)ccc21` (centres unmarked) [Example 7, 1-(3-cyano-1-sec-butyl-indol-5-yl)-pyrazole-4-carboxylic acid], 6.7 nM. Molecule `N#Cc1cn(C2CCC2)c2ccc(-n3cc(C(=O)O)cn3)cc12` [Example 8, 1-[3-cyano-1-cyclobutyl-indol-5-yl]pyrazole-4-carboxylic acid] registered an IC50 of 6.9 nM. The molecule `N#Cc1cn(C2CCCC2)c2ccc(-n3cc(C(=O)O)cn3)cc12` [Example 9, 1-(3-cyano-1-cyclopentyl-indol-5-yl)-pyrazole-4-carboxylic acid] registered an IC50 of 4.6 nM.

With `CC(CF)n1cc(C#N)c2cc(-n3cc(C(=O)O)cn3)ccc21` (centres unmarked) [Example 10, 1-[3-cyano-1-(1-fluoropropan-2-yl)-indol-5-yl]-pyrazole-4-carboxylic acid], half-maximal inhibition (IC50) was put at 5.2 nM. Turning to `N#Cc1cn(C2CCOC2)c2ccc(-n3cc(C(=O)O)cn3)cc12` (centres unmarked) [Example 11, 1-[3-cyano-1-(tetrahydrofuran-3-yl)-indol-5-yl]-pyrazole-4-carboxylic acid], the 50% inhibitory concentration (IC50) is 5.4 nM.

Molecule `Cc1nn(-c2ccc3c(c2)c(C#N)cn3C(C)C)cc1C(=O)O` [Example 12, 1-[3-cyano-1-isopropyl-indol-5-yl]-3-methyl-pyrazole-4-carboxylic acid] yielded an IC50 of 11.6 nM.

Take `Cc1nn(-c2ccc3c(c2)c(C#N)cn3CC2CC2)cc1C(=O)O` [Example 13, 1-[3-cyano-1-(cyclopropylmethyl)indol-5-yl]-3-methyl-pyrazole-4-carboxylic acid]: the IC50 stood at 4.8 nM. The molecule `COCCn1cc(C#N)c2cc(-n3cc(C(=O)O)c(C)n3)ccc21` [Example 14, 1-[3-cyano-1-(2-methoxyethyl)indol-5-yl]-3-methyl-pyrazole-4-carboxylic acid] displayed an IC50 of 12 nM. In turn, `CC(C)n1cc(C#N)c2cc(-n3cc(C(=O)O)c(C(F)(F)F)n3)ccc21` [Example 15, 1-[3-cyano-1-isopropyl-indol-5-yl]-3-(trifluoromethyl)pyrazole-4-carboxylic acid] showed an IC50 of 29200 nM. Molecule `N#Cc1cn(CC2CC2)c2ccc(-n3cc(C(=O)O)c(C(F)(F)F)n3)cc12` [Example 16, 1-[3-cyano-1-(cyclopropylmethyl)indol-5-yl]-3-(trifluoromethyl)pyrazole-4-carboxylic acid] returned an IC50 of 21300 nM. Take `CC(C)n1cc([N+](=O)[O-])c2cc(-n3cc(C(=O)O)cn3)ccc21` [Example 17, 1-(1-isopropyl-3-nitro-indol-5-yl)pyrazole-4-carboxylic acid]: 4.6 nM corresponded to half-maximal inhibition (IC50).

The molecule `CC(C)n1cc(C#N)c2cc(-n3cnc(C(=O)O)n3)ccc21` [Example 18, 1-(3-cyano-1-isopropyl-indol-5-yl)-1,2,4-triazole-3-carboxylic acid] registered an IC50 of 13 nM.

In turn, `CC(C)n1cc(C#N)c2cc(-n3cnc(C(=O)O)c3)ccc21` [Example 19, 1-(3-cyano-1-isopropyl-indol-5-yl)imidazole-4-carboxylic acid] registered an IC50 of 24 nM. Same read-out and setting: for `CC(C)n1cc(C#N)c2cc(-c3ccc(C(=O)O)s3)ccc21` [Example 20, 5-(3-cyano-1-isopropyl-indol-5-yl)-thiophene-2-carboxylic acid] the value was 4.7 nM; for `CC(C)n1cc(C#N)c2cc(-c3cc(C(=O)O)ccn3)ccc21` [Example 21, 2-(3-cyano-1-isopropyl-indol-5-yl)isonicotinic acid], 6.2 nM.

As for `N#Cc1cn(CC2CC2)c2ccc(-c3cc(C(=O)O)ccn3)cc12` [Example 22, 2-[3-cyano-1-(cyclopropylmethyl)-indol-5-yl]isonicotinic acid], the midpoint of inhibition, the IC50, lay at 2.1 nM. `N#Cc1cn(C2CCOC2)c2ccc(-c3cc(C(=O)O)ccn3)cc12` (centres unmarked) [Example 23, 2-[3-cyano-1-(tetrahydrofuran-3-yl)-indol-5-yl]isonicotinic acid] gave an IC50 of 10 nM. Molecule `CC(CF)n1cc(C#N)c2cc(-c3cc(C(=O)O)ccn3)ccc21` (centres unmarked) [Example 24, 2-[3-cyano-1-(1-fluoropropan-2-yl)-indol-5-yl]isonicotinic acid] registered an IC50 of 6.2 nM. Consider `COCCn1cc(C#N)c2cc(-c3cc(C(=O)O)ccn3)ccc21` [Example 25, 2-[3-cyano-1-(2-methoxyethyl)-indol-5-yl]isonicotinic acid], for which the IC50 amounted to 8.5 nM. The molecule `Cc1cc(C(=O)O)cc(-c2ccc3c(c2)c(C#N)cn3C(C)C)n1` [Example 26, 2-(3-cyano-1-isopropyl-indol-5-yl)-6-methylisonicotinic acid] had an IC50 of 3940 nM. As to `CC(C)n1cc([N+](=O)[O-])c2cc(-c3cc(C(=O)O)ccn3)ccc21` [Example 27, 2-(1-isopropyl-3-nitro-indol-5-yl) isonicotinic acid], half-maximal inhibition (IC50) was put at 11 nM. Molecule `N#Cc1cc(-n2cc(C(=O)O)cn2)cc2cc(-c3ccccc3)[nH]c12` [Example 28, 1-(7-cyano-2-phenyl-1H-indol-5-yl)-pyrazole-4-carboxylic acid] registered a half-maximal inhibitory concentration (IC50) of 24 nM. Consider `CC(C)c1cc2cc(-n3cc(C(=O)O)cn3)cc(C#N)c2[nH]1` [Example 29, 1-(7-cyano-2-isopropyl-1H-indol-5-yl)-pyrazole-4-carboxylic acid], for which half-maximal inhibition (IC50) was put at 5 nM. On the same count and under the same terms, for `COCc1cc2cc(-n3cc(C(=O)O)cn3)cc(C#N)c2[nH]1` [Example 30, 1-(7-cyano-2-methoxymethyl-1H-indol-5-yl)-pyrazole-4-carboxylic acid] the value was 17 nM; for `N#Cc1cc(-n2cc(C(=O)O)cn2)cc2cc[nH]c12` [Example 31, 1-(7-cyano-1H-indol-5-yl)-pyrazole-4-carboxylic acid], 40 nM.
